According to patent US6855693B2, “Peptides for activation and inhibition of δPKC” (The Board of Trustees of the Leland Stanford Junior …, priority 2001, dated 2005):
No end group written: not given here.

How the values were obtained:
whole rat hearts = assay: Ex vivo Langendorff perfused whole hearts, peptide before 30 min global ischemia, creatine phosphokinase release
Source text: In another study performed in support of the invention, the δPKC selective inhibitor peptide, δV1-1, or the activator peptide, ψδRACK, were delivered to whole hearts ex vivo to determine if the peptides have activity when introduced extracellulary to a whole organ. As described in Example 3, δV1-1 and ψδRACK peptides were conjugated to a carrier peptide, a Tat-derived peptide. The peptides were delivered into Langendorff perfused rat hearts prior to induction of an ischemic period. After perfusion with the peptides, global ischemia was effected for 30 minutes. After the 30 minute ischemic period, the amount of creatine phosphokinase (CPK) released was monitored during a 30 minute reperfusion period.
Adult, male rats were anesthetized with i.p. avertin, and their hearts were rapidly removed and cannulated via the aorta for perfusion as described in the art (Colbert, M. C. et al.) using Langendorff set-up. Care was taken to have the hearts perfused within 90 seconds of removal. The hearts were perfused with oxygenated Krebs-Henseleit solution comprised of, in […], NaCl 120; KCl 5.8; NaHCO3 25; NaH2O4 1.2; MgSO4 1.2; CaCl2 1.0; and dextrose 10, pH 7.4 at 37 C.
After a 10-20 minute equilibration period, the hearts were perfused with δV1-1 peptide (SEQ ID NO:4) or with ψδRACK peptide (SEQ ID NO:6), prepared as described in Example 1 but conjugated to a Tat-derived peptide (Tat 47-57, SEQ ID NO:9), for 20 minutes. Perfusion was maintained at a constant flow of 10 mL/min with Krebs-Hanseleit solution containing 0.5 μM of the appropriate peptide. The Langendorff method employed used retrograde flow from the […] and into the coronary arteries, bypassing the pulmonary arteries.
To induce global ischemia, flow was interrupted for 30 minutes. After the ischemic event, the hearts were re-perfused for 30-60 minutes. During reperfusion, ischemia-induced cell damage was determined by measuring the activity of creatine phosphokinase (CPK) (absorbance at 520 nm) in the perfusate using a Sigma kit. […]

εPKC = biological target: T1, εPKC (Rattus norvegicus, UniProt P09216); assay: Translocation of εPKC in primary cardiac myocytes (Western blot); assay type: cell-based; conditions: data not shown
T1 construct: blots probed with anti-δPKC, anti-αPKC and anti-εPKC antibodies; endogenous in cells; host or cells: primary neonatal rat cardiac myocytes
T1 sequence (P09216 1-737): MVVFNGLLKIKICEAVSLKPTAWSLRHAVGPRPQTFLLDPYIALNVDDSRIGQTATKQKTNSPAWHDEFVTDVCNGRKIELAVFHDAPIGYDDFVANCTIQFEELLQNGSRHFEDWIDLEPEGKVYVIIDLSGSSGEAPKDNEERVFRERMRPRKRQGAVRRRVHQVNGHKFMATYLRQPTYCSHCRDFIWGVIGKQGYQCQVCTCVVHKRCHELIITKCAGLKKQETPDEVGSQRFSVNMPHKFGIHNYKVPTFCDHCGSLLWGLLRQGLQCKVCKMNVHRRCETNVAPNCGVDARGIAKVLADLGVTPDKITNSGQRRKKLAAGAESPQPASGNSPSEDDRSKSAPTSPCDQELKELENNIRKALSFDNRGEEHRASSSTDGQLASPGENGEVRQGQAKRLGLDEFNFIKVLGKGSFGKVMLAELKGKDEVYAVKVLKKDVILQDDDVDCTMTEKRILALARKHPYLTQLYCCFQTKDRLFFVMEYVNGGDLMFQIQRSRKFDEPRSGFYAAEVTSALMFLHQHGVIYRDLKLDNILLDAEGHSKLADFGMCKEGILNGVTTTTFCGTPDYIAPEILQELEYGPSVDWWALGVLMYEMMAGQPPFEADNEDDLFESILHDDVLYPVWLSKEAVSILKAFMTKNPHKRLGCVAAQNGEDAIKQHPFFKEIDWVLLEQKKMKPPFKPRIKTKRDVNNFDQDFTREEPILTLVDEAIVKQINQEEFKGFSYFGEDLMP
Experimental: As described in Example 1, the δV1-1 and ψδRACK peptides were analyzed to determine whether the peptides had activity, and if so, whether the activity was as an agonist or an antagonist of δPKC. As will be shown, δV1-1, δV1-2 and δV1-5 are δPKC antagonists and ψδRACK is a δPKC agonist. In these studies, the δV1-1 and ψδRACK peptides were modified with a carrier peptide by cross-linking via an N-terminal Cys-Cys bond to the Drosophila Antennapedia homeodomain (SEQ ID NO:8; Théodore, L., et al.; Johnson, J. A. et al., 1996b). […] Translocation of δPKC isozyme was assessed by Western blot analysis cystosolic and particulate fractions of treated cells. Subcellular localization of δPKC isozyme was assessed by immunofluorescence by probing the blot with […], and anti-εPKC antibodies. Translocation was expressed as the amount of isozyme in the particulate fraction over the amount of isozyme in non-treated cells. […]
Translocation of δPKC isozyme was assessed by using δPKC isozyme-specific antibodies in Western blot analysis (Santa Cruz Biotechnology). […] Subcellular localization of dPKC isozymes was assessed by chemiluminescence of blots probed with anti-δPKC, anti-αPKC and anti-εPKC antibodies. […] Changes in translocation of δPKC isozyme were also determined by immunofluoresence study of treated and fixed cells (Gray et al., 1997). […]

[1] = 0.5 μM Tat-conjugated peptide for 20 minutes before 30 minute global ischemia

translocation of εPKC (εPKC) | release of creatine kinase (whole rat hearts; 0.5 μM Tat-conjugated peptide before 30 minute global ischemia, reperfusion period) | Sequence | enhancement of cardiac damage induced by ischemia (CPK release) (whole rat hearts; [1]) | protection against ischemic damage in an intact heart (whole rat hearts; [1])
without affecting |  | MRAAEDPM (also: conjugated to Antennapedia or Tat carrier; listed as Rattus norvegicus) [ψδRACK, tested conjugated to Antennapedia or Tat carrier] | about 30% | 
did not inhibit | decreased | SFNSYELGSL (also: conjugated to Antennapedia or Tat carrier; listed as Rattus norvegicus) [δV1-1, tested conjugated to Antennapedia or Tat carrier] |  | greater than 50%
